Like-named read-outs stand apart in the source and are kept apart here.
Experiments:
Format in all cases: cell-based
[1] = biological target: T1, hM3 (human Muscarinic receptor subtype 3) (Homo sapiens, UniProt P20309); assay: Human M3 calcium mobilization FLIPR assay; conditions: hM3 expressed in CHO cells, intracellular Ca2+ release, read-out: hM3 EC50
T1 construct: expressed in transfected cells; host or cells: CHO cells (Chinese hamster ovary cells, ATCC)
Experimental: (§1) Human M1, rat M1, human M3 and human M5 Calcium Mobilization FLIPR™ Assay
(§2) The compound activity in the present invention (EC50 or IC50) is measured using a 384 plate-based imaging assay that monitors drug induced intracellular Ca^2+ release in whole cells. Activation of hM1 (human Muscarinic receptor subtype 1, gene bank access NM_000738), rM1 (rat Muscarinic receptor subtype 1, gene bank access NM_080773), hM3 (human Muscarinic receptor subtype 3, gene bank access NM_000740NM_000740) and hM5 (human Muscarinic receptor subtype 5, gene bank access NM_0121258), receptors expressed in CHO cells (Chinese hamster ovary cells, ATCC) is quantified in a Molecular Devices FLIPR II™ instrument as an increase in fluorescent signal. Inhibition of hM3 and hM5 by compounds is determined by the decrease in fluorescent signal in response to 2 nM acetylcholine activation.
(§3) Prior to experiment, the cell culture medium is removed from the plates by inversion. […] Plates are incubated at 37° C. for 60 minutes prior to start the experiment. The incubation is terminated by washing the cells four times in assay buffer, leaving a residual 25 μl buffer per well. Cell plates are then transferred to the FLIPR, ready for compound additions.
(§4) The day of experiment, acetylcholine and compounds are diluted in assay buffer in three-fold concentration range (10 points serial dilution) for addition by FLIPR instrument. For all calcium assays, a baseline reading is taken for 10 seconds followed by the addition of 12.5 μl of compounds, resulting in a total well volume of 37.5 μl. Data is collected every second for 60 pictures and then every 6 seconds for 20 pictures prior to the addition of agonist. For hM3 and hM5, before agonist addition, a second baseline reading is taken for 10 seconds followed by the addition of 12.5 μl of agonist or buffer, producing a final volume of 50 μl. After agonist stimulation, the FLIPR continues to collect data every second for 60 pictures and then every 6 seconds for 20 pictures. The fluorescence emission is read using filter 1 (emission 510-570 nm) by the FLIPR on board CCD camera.
(§5) Calcium mobilization output data are calculated as the maximal relative fluorescence unit (RFU) minus the minimal value for both compound and agonist reading frame (except for hM1 and rM1 using only the maximal RFU). Data are analyzed using sigmoidal fits of a non-linear curve-fitting program (XLfit version 4.2.2 Excel add-in version 4.2.2 build 18 math 1Q version 2.1.2 build 18). All pEC50 and plC50 values are reported as arithmetic means ±standard error of mean of ‘n’ independent experiments.

[2] = biological target: T2, hM5 (human Muscarinic receptor subtype 5) (Homo sapiens, UniProt P08912); assay: Human M5 calcium mobilization FLIPR assay; conditions: hM5 expressed in CHO cells, intracellular Ca2+ release, read-out: hM5 EC50
T2 construct: expressed in transfected cells; host or cells: CHO cells (Chinese hamster ovary cells, ATCC)
T2 sequence (P08912 1-532): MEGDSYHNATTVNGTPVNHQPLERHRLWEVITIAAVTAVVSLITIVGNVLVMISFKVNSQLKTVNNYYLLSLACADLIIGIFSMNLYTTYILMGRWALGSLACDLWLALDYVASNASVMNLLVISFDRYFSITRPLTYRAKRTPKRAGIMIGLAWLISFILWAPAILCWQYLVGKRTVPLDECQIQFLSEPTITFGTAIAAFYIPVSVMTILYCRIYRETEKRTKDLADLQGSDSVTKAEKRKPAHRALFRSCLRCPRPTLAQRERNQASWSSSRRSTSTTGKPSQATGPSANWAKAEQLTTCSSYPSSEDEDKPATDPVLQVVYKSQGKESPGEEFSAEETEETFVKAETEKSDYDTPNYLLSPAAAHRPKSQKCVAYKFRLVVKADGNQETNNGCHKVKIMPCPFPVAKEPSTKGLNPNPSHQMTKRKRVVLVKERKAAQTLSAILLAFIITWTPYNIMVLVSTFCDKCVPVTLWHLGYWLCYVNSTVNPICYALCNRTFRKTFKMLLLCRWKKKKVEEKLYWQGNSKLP
Experimental: as §1, §2, §3, §4, §5

[3] = biological target: T3, hM1 (human Muscarinic receptor subtype 1) (Homo sapiens, UniProt P11229); assay: Human M1 calcium mobilization FLIPR assay; conditions: hM1 expressed in CHO cells, intracellular Ca2+ release
T3 construct: expressed in transfected cells; host or cells: CHO cells (Chinese hamster ovary cells, ATCC)
T3 sequence (P11229 1-460): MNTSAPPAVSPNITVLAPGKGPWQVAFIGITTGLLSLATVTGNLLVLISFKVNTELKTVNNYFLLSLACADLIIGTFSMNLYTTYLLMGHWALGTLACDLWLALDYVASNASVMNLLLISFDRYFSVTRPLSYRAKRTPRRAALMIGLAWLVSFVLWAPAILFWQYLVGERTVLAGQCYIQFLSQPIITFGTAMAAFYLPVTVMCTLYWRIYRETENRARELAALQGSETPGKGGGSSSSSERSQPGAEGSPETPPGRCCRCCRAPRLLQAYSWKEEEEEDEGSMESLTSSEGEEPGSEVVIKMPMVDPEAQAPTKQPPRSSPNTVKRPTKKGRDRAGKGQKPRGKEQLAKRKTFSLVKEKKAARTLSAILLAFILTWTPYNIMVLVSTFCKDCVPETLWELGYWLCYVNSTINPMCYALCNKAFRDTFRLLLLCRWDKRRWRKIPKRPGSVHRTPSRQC
Procedure, shortened: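 CHO cells expressing the receptor, dye-loaded at 37°C for 60 min, read on FLIPR at 510-570 nm. Agonism taken from compound-induced Ca2+ rise (max RFU for M1); M3/M5 inhibition measured against 2 nM acetylcholine using max minus min RFU. 10-point threefold dilutions, sigmoidal fits.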

T1 sequence (P20309 whole entry): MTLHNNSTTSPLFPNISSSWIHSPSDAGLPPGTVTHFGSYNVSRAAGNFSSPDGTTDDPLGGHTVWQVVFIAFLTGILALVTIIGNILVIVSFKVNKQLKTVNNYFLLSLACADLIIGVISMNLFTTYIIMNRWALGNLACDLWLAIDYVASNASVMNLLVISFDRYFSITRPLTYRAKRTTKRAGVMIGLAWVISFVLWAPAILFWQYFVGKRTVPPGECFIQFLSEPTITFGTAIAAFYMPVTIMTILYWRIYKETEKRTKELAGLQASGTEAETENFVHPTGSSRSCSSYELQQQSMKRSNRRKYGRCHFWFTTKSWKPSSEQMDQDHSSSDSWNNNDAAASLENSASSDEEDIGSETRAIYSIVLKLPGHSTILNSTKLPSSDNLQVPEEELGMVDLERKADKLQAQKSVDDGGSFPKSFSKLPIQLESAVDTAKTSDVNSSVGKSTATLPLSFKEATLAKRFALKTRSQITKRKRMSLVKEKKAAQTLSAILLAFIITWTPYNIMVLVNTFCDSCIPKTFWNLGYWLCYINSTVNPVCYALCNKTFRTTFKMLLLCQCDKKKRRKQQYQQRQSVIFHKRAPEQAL

Row | SMILES | EC50 [1] [nM] | EC50 [2] [nM] | EC50 ([3]; read-out: hM1 EC50) [nM] | EC50 ([3]; hM1 EC50 (nM)) [nM]
1 | CC1(N2CCC(n3c(=O)[nH]c4ccccc43)CC2)CCN(C(=O)OCCF)C1 (racemic) [Example 4, 2-fluoroethyl 3-methyl-3-(4-(2-oxo-2,3-dihydro-1H-benzo[d]imidazol-1-yl)piperidin-1-yl)pyrrolidine-1-carboxylate] | > 40000 | > 9600 | 13.5 | 
2 | CCOC(=O)N1CCC(C)(N2CCC(n3c(=O)[nH]c4cc(F)ccc43)CC2)C1 (single isomer, unassigned) [Example 7, ethyl 3-(4-(5-fluoro-2-oxo-2,3-dihydro-1H-benzo[d]imidazol-1-yl)piperidin-1-yl)-3-methylpyrrolidine-1-carboxylate] | > 40000 | 3100 | < 6.6 | 
3 | Cc1ccc2c(c1)[nH]c(=O)n2C1CCN(C2(C)CCN(C(=O)OC(C)C)C2)CC1 (single isomer, unassigned) [Example 15, isopropyl 3-methyl-3-(4-(5-methyl-2-oxo-2,3-dihydro-1H-benzo[d]imidazol-1-yl)piperidin-1-yl)pyrrolidine-1-carboxylate] | > 40000 |  | 94.9 | 
4 | CC#CCOC(=O)N1CCC(C)(N2CCC(n3c(=O)[nH]c4ccc(C)cc43)CC2)C1 (single isomer, unassigned) [Example 20, but-2-ynyl 3-methyl-3-(4-(6-methyl-2-oxo-2,3-dihydro-1H-benzo[d]imidazol-1-yl)piperidin-1-yl)pyrrolidine-1-carboxylate] | 535 | 720 | 14.2 | 
5 | CC1(N2CCC(n3c(=O)[nH]c4cc(F)ccc43)CC2)CCN(C(=O)OCCF)C1 (single isomer, unassigned) [Example 24, 2-fluoroethyl 3-(4-(5-fluoro-2-oxo-2,3-dihydro-1H-benzo[d]imidazol-1-yl)piperidin-1-yl)-3-methylpyrrolidine-1-carboxylate] | > 26500 | 1570 | 10.4 | 
6 | Cc1ccc2[nH]c(=O)n(C3CCN(C4(C)CCN(C(=O)OCCF)C4)CC3)c2c1 (single isomer, unassigned) [Example 28, 2-fluoroethyl 3-methyl-3-(4-(6-methyl-2-oxo-2,3-dihydro-1H-benzo[d]imidazol-1-yl)piperidin-1-yl)pyrrolidine-1-carboxylate] | > 24300 | 2650 | 10 | 
7 | C#CCOC(=O)N1CCC(C)(N2CCC(n3c(=O)[nH]c4ccc(C)cc43)CC2)C1 (single isomer, unassigned) [Example 41, prop-2-ynyl 3-methyl-3-(4-(6-methyl-2-oxo-2,3-dihydro-1H-benzo[d]imidazol-1-yl)piperidin-1-yl)pyrrolidine-1-carboxylate] | > 40000 | > 40000 | 23.5 | 
8 | C#CCOC(=O)N1CCC(C)(N2CCC(n3c(=O)[nH]c4ccc(C)cc43)CC2)C1 (single isomer, unassigned) [Example 43, prop-2-ynyl 3-methyl-3-(4-(6-methyl-2-oxo-2,3-dihydro-1H-benzo[d]imidazol-1-yl)piperidin-1-yl)pyrrolidine-1-carboxylate] | 553 | 205 | 2.5 | 
9 | COC(=O)N1CCC(C)(N2CCC(n3c(=O)[nH]c4ccc(C)cc43)CC2)C1 (single isomer, unassigned) [Example 45, methyl 3-methyl-3-(4-(6-methyl-2-oxo-2,3-dihydro-1H-benzo[d]imidazol-1-yl)piperidin-1-yl)pyrrolidine-1-carboxylate] | > 40000 | 1080 | 14.1 | 
10 | COC(=O)N1CCC(C)(N2CCC(n3c(=O)[nH]c4cc(C)ccc43)CC2)C1 (single isomer, unassigned) [Example 48, methyl 3-methyl-3-(4-(5-methyl-2-oxo-2,3-dihydro-1H-benzo[d]imidazol-1-yl)piperidin-1-yl)pyrrolidine-1-carboxylate] | > 40000 | > 40000 | 8.5 | 
11 | CCOC(=O)N1CCC(C)(N2CCC(n3c(=O)[nH]c4ccc(F)cc43)CC2)C1 (single isomer, unassigned) [Example 49, ethyl 3-(4-(6-fluoro-2-oxo-2,3-dihydro-1H-benzo[d]imidazol-1-yl)piperidin-1-yl)-3-methylpyrrolidine-1-carboxylate] | > 40000 | > 6210 | 15.1 | 
12 | CCOC(=O)N1CCC(C)(N2CCC(n3c(=O)[nH]c4ccc(F)cc43)CC2)C1 (single isomer, unassigned) [Example 50, ethyl 3-(4-(6-fluoro-2-oxo-2,3-dihydro-1H-benzo[d]imidazol-1-yl)piperidin-1-yl)-3-methylpyrrolidine-1-carboxylate] | > 40000 | 3560 | 2.2 | 
13 | COC(=O)N1CCC(C)(N2CCC(N3C(=O)Cc4cc(F)c(C)cc43)CC2)C1 (single isomer, unassigned) [Example 84, methyl 3-(4-(5-fluoro-6-methyl-2-oxoindolin-1-yl)piperidin-1-yl)-3-methylpyrrolidine-1-carboxylate] |  |  |  | 7.7
14 | COC(=O)N1CCC(C)(N2CCC(n3c(=O)[nH]c4cc(F)ccc43)CC2)C1 (centres unmarked) [Example 8, methyl 3-(4-(5-fluoro-2-oxo-2,3-dihydro-1H-benzo[d]imidazol-1-yl)piperidin-1-yl)-3-methylpyrrolidine-1-carboxylate] |  |  | 18.3 | 
15 | C#CCOC(=O)N1CCC(C)(N2CCC(n3c(=O)[nH]c4cc(F)ccc43)CC2)C1 (centres unmarked) [Example 11, prop-2-ynyl 3-(4-(5-fluoro-2-oxo-2,3-dihydro-1H-benzo[d]imidazol-1-yl)piperidin-1-yl)-3-methylpyrrolidine-1-carboxylate] | 1130 |  | 2 | 
16 | CCOC(=O)N1CCC(C)(N2CCC(n3c(=O)[nH]c4ccc(C)cc43)CC2)C1 (centres unmarked) [Example 16, ethyl 3-methyl-3-(4-(6-methyl-2-oxo-2,3-dihydro-1H-benzo[d]imidazol-1-yl)piperidin-1-yl)pyrrolidine-1-carboxylate] |  |  | 8.1 | 
17 | COC(=O)N1CCC(C)(N2CCC(n3c(=O)[nH]c4ccc(C)cc43)CC2)C1 (centres unmarked) [Example 17, methyl 3-methyl-3-(4-(6-methyl-2-oxo-2,3-dihydro-1H-benzo[d]imidazol-1-yl)piperidin-1-yl)pyrrolidine-1-carboxylate] |  |  | 9.7 | 

— patent US20090221642A1, “MUSCARINIC RECEPTOR AGONISTS, COMPOSITIONS, METHODS OF TREATMENT THEREOF, AND PROCESSES FOR PREPARATION THEREOF-176” (AstraZeneca AB, priority 2008, published 2009)
